From patent US11279708B2, “Amidino- and amino-rocaglates as novel translation inhibitors and anticancer agents” (priority 2019, dated 2022)

Assays:
[1] = test system: eIF4A-dependent translation; assay: in vitro translation assay, bicistronic FF/HCV/Ren reporter mRNA in Krebs-2 extracts; type: biochemical; settings: for IC50: bicistronic FF/HCV/Ren mRNA, FIG. 14/15, read-out: IC50, inhibition of cap-dependent translation (FF relative to REN); for inhibition of cap-dependent translation in vitro (in words): screen at 2 μM compound
Experimental: Structure-Activity Relationships. With a number of amidino-rocaglates and amino-rocaglates in hand, we evaluated their inhibition of eIF4A-dependent translation using an in vitro assay as depicted in FIG. 14, where a bicistronic reporter mRNA was designed for translation in Krebs-2 extracts. In FIG. 14 the following description applies (a) IC50 was determined from fitted sigmoid curves; […] indicates the concentration of compound that inhibits cap-dependent translation by 50%, which was normalized by cap-independent translation. For its determination, the bicistronic reporter FF/HCV/Ren mRNA was used to produce Firefly luciferase (cap-dependent) and Renilla luciferase (cap-independent) in Krebs-2 extracts in the presence of indicated compounds at various concentrations. In particular, translation of Firefly luciferase (FF) is cap-dependent and depends on eIF4A activity; in contrast, translation of Renilla luciferase (REN) utilizes the HCV internal ribosome entry site (IRES) which functions independently of eIF4A. IC50's were determined by the inhibition of FF relative to REN obtained in the presence of compound relative to vehicle controls and normalized to REN as an internal control. […] In accordance with the eIF4A-RNA-rocaglamide (2) co-crystallographic analysis (FIG. 4), the amide carbonyl of 2 interacts with Gln195 of eIF4A as a H-bond acceptor, while the tertiary hydroxyl of 2 serves as a H-bond donor to an RNA base. […] To further verify the hypothesis, amidino-rocaglates (pKa of N—H˜26.7-30.7 in DMSO, strong H-bond donors) and amino-rocaglates (pKa of N—H˜36 to 44 in DMSO, weak H-bond donors) were next evaluated. […] Conversely, benzyl amidine 9e had IC50=60 nM, whereas the methylene tether may allow conformational adjustment to avoid rigid repulsion in the binding pocket.
The rocaglate collection was also tested in in vitro translation assays using cell-free extracts with a previously described bicistronic mRNA containing the HCV IRES, which is not dependent on eIF4A activity and served as an internal control (FIG. 19C).
In Vitro Translation Assays. In vitro translation assays performed in Krebs-2 cell extracts were supplemented with 5 mM MgCl2, 30 mM Tris-HCl (pH 7.5), 1.5 mM ATP, 0.1 mM GTP, 0.6 mM CTP, 10 mM dipotassium creatine phosphate, 80 μg/mL creatine kinase, and 0.04 mM amino acids. The specified mRNA reporters were added to each reaction at a final concentration of 10 ng/μL. The translation reactions were incubated with or without compound for 60 minutes at 30° C. prior to the measurement of luciferase activities.
FIGS. 19A-19C. Rocaglate activity profiling. 19A. Assessing eIF4A1:poly r(AG)8 (SEQ ID NO: 2) RNA binding by FP in the presence of 10 μM rocaglate. Values are expressed relative to vehicle controls and data is rank ordered. n=3±SD. 19B. The change in polarization obtained with eIF4A1:poly r(AG)8 (SEQ ID NO: 2) and eIF4A2:poly r(AG)8 (SEQ ID NO: 2) RNA. Pearson r=0.814; p<0.0001. 19C. Inhibition of cap-dependent translation by rocaglates was measured using the indicated mRNA bicistronic reporter (4 ng/ul) in Krebs-2 extracts at a final compound concentration of 2 μM. n=3±SD.
FIG. 35A-35E are plots showing dose-response curve of FF-HCV-Ren mRNA translation in Krebs extracts with IC50s shown for inhibition of cap-dependent protein synthesis. Values are plotted relative to DMSO controls. n=2 technical replicates performed in duplicate.

NIH/3T3 cells = assay: Sulforhodamine B (SRB) cytotoxicity assay; type: cell-based
Experimental: In cellula activity of rocaglates. All compounds in the rocaglate collection were assessed for cytotoxic activity towards NIH/3T3 cells as well as the rocaglate-resistant line, eIF4A^em1JP, which harbors an F163L mutation in eIF4A1. This mutation was originally identified following selection for RocA-resistant yeast mutants and F163 was subsequently shown to be critical for stacking with ring C of RocA (2) (FIG. 4). Although eIF4A2 is also a target of rocaglates, eIF4A1 F163L is sufficient to confer resistance to rocaglate-induced translation inhibition and cytotoxicity, likely due to eIF4A1 being the more abundant isoform in NIH/3T3 cells (250-fold higher). […] Lastly, although effective at inhibiting cap-dependent translation in vitro, WGD-57-591 (no activity @ 40 nM) and WGD-57-590 (12% growth inhibition @ 40 nM) performed poorly in this assay.
Sulforhodamine B (SRB) assay. NIH/3T3 cells were seeded at a density of 1000 cells/well in a 96 well format and incubated in presence of each 40 nM compound. After 4 days of culture, cells were washed with PBS, fixed with 50% trichloroacetic (TCA) acid for 1 hour, and then stained with 0.5% sulforhodamine B in 1% acetic acid for 15 min. Plates were then washed 5 times with 1% acetic acid, dried, and the stained wells were resuspended with 10 mM Tris (pH 9) prior to measuring the absorbance at 510 nm using (Spectramax M5, Molecular Devices)
FIGS. 26A-26B. In cellula activity of rocaglates. 26A. Cytotoxicity of rocaglates towards NIH/3T3 (grey circle) and the NIH/3T3 rocaglate-resistant line, eIF4A^em1JP(redtriangle). Cells were exposed to 40 nM compound for 4 days and viability was measured using the SRB assay. n=3±SD. 26B. Rocaglates show different sequence preferences for inhibiting cap-dependent translation in cellula. HEK 293 cells were transfected with 0.5 μg of in vitro synthesized capped (AG)10-FF/HCV/Ren or (UC)10-FF/HCV/Ren mRNA and 1h later exposed to the indicated concentrations of compounds for an additional 6 h, at which time extracts were prepared and luciferase activity measured. n=3 SD.

SMILES: COC(=O)[C@@H]1[C@@H](c2ccccc2)[C@]2(c3ccc(OC)cc3)Oc3cc(OC)cc(OC)c3[C@@]23N=C(C)N[C@@]13O [9b]
- IC50 [1]: 189 nM
- inhibition of cap-dependent translation in vitro (in words) [1]: comparable potency to SDS-1-021
- rank among the top 15 cytotoxic rocaglates (NIH/3T3 cells; 40 nM, 4 days): 10th

SMILES: CONC(=O)[C@H]1[C@@H](O)[C@@]2(O)c3c(OC)cc(OC)cc3O[C@@]2(c2ccc(OC)cc2)[C@@H]1c1ccccc1 [CR-1-31-B]
- IC50 [1]: 272 nM
- IC50 (NIH/3T3 cells; 4 day exposure, read-out: IC50, cytotoxicity towards NIH/3T3 cells): ~8.5 nM

SMILES: COC(=O)[C@H]1[C@@H](O)[C@@]2(O)c3c(OC)cc(O[C@@H]4O[C@@H]([C@H](O)CO)CO[C@H]4OC)cc3O[C@@]2(c2ccc(OC)cc2)[C@@H]1c1ccccc1 [silvestrol]
- inhibition of cap-dependent translation in vitro (in words) [1]: potently inhibit cap-dependent translation
